Columns and labels:
S. aureus ATCC 33591 = assay: MIC, NCCLS broth microdilution assay; format: cell-based, Staphylococcus aureus; conditions: S. aureus ATCC 33591
S. aureus ATCC 13709 = assay: MIC, NCCLS broth microdilution assay; format: cell-based, Staphylococcus aureus; conditions: S. aureus ATCC 13709, methicillin sensitive strain (MSSA)
[1] = system: S. pneumoniae (ATCC 51422, PRSP); conditions: S. pneumoniae ATCC 51422, penicillin resistant strain (PRSP)
Source text: (§1) In vitro biological activity data were collected for a variety of microorganisms, including Bacillus cereus (ATCC 11778), Staphylococcus aureus (ATCC 33591; ATCC 27660, a methicillin resistant strain (MRSA); ATCC 13709, a methicillin sensitive strain (MSSA)), Escherichia coli (ATCC 25922), Enterococcus faecalis (ATCC 29212), Streptococcus pneumoniae (ATCC 49619; ATCC 51422, a penicillin resistant strain (PRSP)), Enterococcus faecium (ATCC 51559, a vancomycin resistant strain (VRE)), and Staphylococcus epidermidis (ATCC 12228). Additionally, antifungal activity data were collected for Candida albicans (ATCC 38247).
(§2) Compounds according to this invention were screened for their in vitro activities against selected species of bacteria and fungi. The minimal inhibition concentration (MIC) of these compounds was determined using the National Committee for Clinical Laboratory Standards (NCCLS) broth microdilution assay in microtiter plates, as set forth in: (1) the guidelines of the National Committee for Clinical Laboratory Standards (NCCLS) Document M7-A4 (NCCLS, 1997); (2) the guidelines of the National Committee for Clinical Laboratory Standards (NCCLS) Document M11-A4 (NCCLS, 1997); and (3) the guidelines and reference method of the National Committee for Clinical Laboratory Standards (NCCLS) Document M27 -T (NCCLS, 1995). For antifungal assays, the method recommended in Murray, PR., 1995 Manual of Clinical Microbiology (ASM Press, Washington, D.C.), was employed.
(§3) (MIC values are keyed in the same manner as Table B.)

[2] = system: E. faecium (ATCC 51559, VRE); conditions: E. faecium ATCC 51559, vancomycin resistant strain (VRE)
Source text: as §1, §2, §3

[3] = system: S. epidermidis ATCC 12228; assay: MIC, NCCLS broth microdilution assay; format: cell-based, Staphylococcus epidermidis
B. cereus ATCC 11778 = assay: MIC, NCCLS broth microdilution assay; format: cell-based, Bacillus cereus; conditions: B. cereus ATCC 11778
C. albicans ATCC 38247 = assay: MIC, antifungal assay; format: cell-based, Candida albicans; conditions: C. albicans ATCC 38247
S. pneumoniae ATCC 49619 = assay: MIC, NCCLS broth microdilution assay; format: cell-based, Streptococcus pneumoniae; conditions: S. pneumoniae ATCC 49619
E. coli ATCC 25922 = assay: MIC, NCCLS broth microdilution assay; format: cell-based, Escherichia coli; conditions: E. coli ATCC 25922
E. faecalis ATCC 29212 = assay: MIC, NCCLS broth microdilution assay; format: cell-based, Enterococcus faecalis; conditions: E. faecalis ATCC 29212
S. aureus ATCC 27660 = assay: MIC, NCCLS broth microdilution assay; format: cell-based, Staphylococcus aureus; conditions: S. aureus ATCC 27660, methicillin resistant strain (MRSA)

Row | Compound | Minimum Inhibitory Concentration (MIC) (S. aureus ATCC 33591) | Minimum Inhibitory Concentration (MIC) (S. aureus ATCC 13709) | Minimum Inhibitory Concentration (MIC) [1] | Minimum Inhibitory Concentration (MIC) [2] | Minimum Inhibitory Concentration (MIC) [3] | Minimum Inhibitory Concentration (MIC) (B. cereus ATCC 11778) | Minimum Inhibitory Concentration (MIC) (C. albicans ATCC 38247) | Minimum Inhibitory Concentration (MIC) (S. pneumoniae ATCC 49619) | Minimum Inhibitory Concentration (MIC) (E. coli ATCC 25922) [µg/mL] | Minimum Inhibitory Concentration (MIC) (E. faecalis ATCC 29212) | Minimum Inhibitory Concentration (MIC) (S. aureus ATCC 27660)
1 | CN(C)CCCNc1ncccc1C(=O)Nc1ccc(-c2cc3ccccc3o2)cc1 [Compound A-11] | +++ (MIC ≦ 4) | +++ (MIC ≦ 4) | + (12 ≦ MIC ≦ 32) | +++ (MIC ≦ 4) | +++ (MIC ≦ 4) | +++ (MIC ≦ 4) | +++ (MIC ≦ 4) | + (12 ≦ MIC ≦ 32) | >32 | +++ (MIC ≦ 4) | +++ (MIC ≦ 4)
2 | NCCNc1snc(C(=O)Nc2ccc(-c3cc4ccccc4o3)cc2)c1Cl [Compound A-3] | +++ (MIC ≦ 4) | +++ (MIC ≦ 4) | + (12 ≦ MIC ≦ 32) | +++ (MIC ≦ 4) | +++ (MIC ≦ 4) | + (12 ≦ MIC ≦ 32) | +++ (MIC ≦ 4) | + (12 ≦ MIC ≦ 32) | >32 | +++ (MIC ≦ 4) | +++ (MIC ≦ 4)
3 | Cc1ccc2nc(-c3ccc(NC(=O)c4nsc(NCCCN)c4Cl)cc3)sc2c1 [Compound A-53] | +++ (MIC ≦ 4) | +++ (MIC ≦ 4) | + (12 ≦ MIC ≦ 32) | +++ (MIC ≦ 4) | +++ (MIC ≦ 4) | +++ (MIC ≦ 4) | >32 µg/mL | >32 µg/mL | >32 | +++ (MIC ≦ 4) | +++ (MIC ≦ 4)
4 | Cc1cc(NC(=O)c2nsc(NCCCN)c2Cl)ccc1-c1cc2ccccc2o1 [Compound A-34] | +++ (MIC ≦ 4) | +++ (MIC ≦ 4) | + (12 ≦ MIC ≦ 32) | +++ (MIC ≦ 4) | +++ (MIC ≦ 4) | +++ (MIC ≦ 4) | +++ (MIC ≦ 4) | + (12 ≦ MIC ≦ 32) | >32 | +++ (MIC ≦ 4) | +++ (MIC ≦ 4)
5 | CN(C)CCCNc1snc(C(=O)Nc2ccc(-c3cc4ccccc4o3)cc2)c1Cl [Compound A-7] | +++ (MIC ≦ 4) | +++ (MIC ≦ 4) | + (12 ≦ MIC ≦ 32) | +++ (MIC ≦ 4) | +++ (MIC ≦ 4) | +++ (MIC ≦ 4) | ++ (4 < MIC < 12) | + (12 ≦ MIC ≦ 32) | >32 | +++ (MIC ≦ 4) | +++ (MIC ≦ 4)
